≈ marks a conversion by molar mass, not a printed value. Calls of active or inactive are those of the source. The calls are words filed in the database; no cut-off is given here.
Key:
LX-2 [1] = assay: Anti-fibrotic activity against human LX2 cells assessed as reduction in TGF-1beta-induced fibronectin mRNA expression at 0.25 to 1 ug/ml by qPCR analysis; assay type: functional, cell-based; conditions: dose 0.25-1 µg/ml
[2] = target: Signal transducer and activator of transcription 3 (Homo sapiens) (UniProt P40763); assay: Inhibition of STAT3 in human LX2 cells assessed as reduction in TGF-1beta-induced STAT3 phosphorylation at 0.25 to 1 ug/ml by Western blot analysis; assay type: cell-based; conditions: dose 0.25-1 µg/ml
Sequence of Signal transducer and activator of transcription 3 (Homo sapiens) (P40763 whole entry): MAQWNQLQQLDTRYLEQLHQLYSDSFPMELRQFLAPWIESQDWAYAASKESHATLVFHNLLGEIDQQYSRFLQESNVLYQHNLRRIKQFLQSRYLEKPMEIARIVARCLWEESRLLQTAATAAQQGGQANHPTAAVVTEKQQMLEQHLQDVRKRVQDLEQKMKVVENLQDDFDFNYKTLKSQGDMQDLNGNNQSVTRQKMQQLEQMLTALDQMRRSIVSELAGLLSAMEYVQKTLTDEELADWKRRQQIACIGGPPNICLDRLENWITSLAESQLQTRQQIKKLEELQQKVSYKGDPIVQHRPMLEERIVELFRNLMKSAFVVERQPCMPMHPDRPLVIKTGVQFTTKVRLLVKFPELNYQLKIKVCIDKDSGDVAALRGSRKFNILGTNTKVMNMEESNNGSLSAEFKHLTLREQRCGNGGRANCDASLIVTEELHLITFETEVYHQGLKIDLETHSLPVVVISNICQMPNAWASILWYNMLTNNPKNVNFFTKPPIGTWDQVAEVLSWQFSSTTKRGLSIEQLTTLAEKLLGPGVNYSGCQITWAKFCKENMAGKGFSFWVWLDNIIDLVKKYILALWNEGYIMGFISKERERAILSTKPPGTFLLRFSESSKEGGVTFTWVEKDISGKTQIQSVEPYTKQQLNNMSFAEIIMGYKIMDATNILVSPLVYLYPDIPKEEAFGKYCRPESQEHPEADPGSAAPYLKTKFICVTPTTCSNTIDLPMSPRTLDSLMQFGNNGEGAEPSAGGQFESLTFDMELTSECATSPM

[3] = Anticancer activity against human nasopharyngeal carcinoma cells measured upto 72 hrs by MTT assay; assay type: functional; conditions: Nasopharyngeal carcinoma cell line
LX-2 [4] = assay: Anti-fibrotic activity against human LX2 cells assessed as reduction in TGF-1beta-induced alpha-SMA mRNA expression at 0.25 to 1 ug/ml by qPCR analysis; assay type: functional, cell-based; conditions: dose 0.25-1 µg/ml
[5] = target: Signal transducer and activator of transcription 3 (Homo sapiens) (UniProt P40763); assay: Inhibition of STAT3 in human LX2 cells assessed as reduction in TGF-1beta-induced CTGF expression at 0.25 to 1 ug/ml by Western blot analysis; assay type: cell-based; conditions: dose 0.25-1 µg/ml
Influenza A virus = assay: Antiviral activity against influenza A virus infected in MDCK cells assessed as reduction in plaque number measured after 48 to 72 hrs; assay type: functional, organism-based
LX-2 [6] = assay: Anti-fibrotic activity against human LX2 cells assessed as reduction in TGF-1beta-induced collagen mRNA expression at 0.25 to 1 ug/ml by qPCR analysis; assay type: functional, cell-based; conditions: dose 0.25-1 µg/ml

With `C/C=C(/C)C(=O)O[C@H]1[C@@H]2[C@H](C)C(=O)O[C@@H]2C[C@@H](C)[C@@H]2C=CC(=O)[C@]21C` [BREVILIN A] the Activity (LX-2 [1]) was “Active”, the inhibition [2] was “Active” and the IC50 [3] was 3.46 mg/L (≈ 9.99 µM). For the same compound, the Activity (LX-2 [4]) was “Active”, the inhibition [5] was “Active” and the EC50 (Influenza A virus) was 1.02 mg/L (≈ 2.94 µM). The Activity (LX-2 [6]) was “Active”.
